Experimental data: patent US4335249A, “Herbicidal diphenyl ethers, sulfides, sulfoxides and sulfones” (Rohm and Haas Company, priority 1976, dated 1982)

Key:
Format in all cases: in vivo
[1] = tested on: morningglory (Ipomoca spp.); experiment: Preemergence herbicidal activity, morningglory; conditions: 2 lb/A; for pest or weed control at 2241.7 g/ha: Ipomoea, pre-emergence, 336 h
Description: (§1) Using the procedure described below, compounds of the invention are evaluated for control of several of the following plant species:
(§2) The following est procedure is employed. Seeds of selected crops and weeds are planted in soil in flats. For preemergence tests, the flats are treated with the test compound immediately after the planting. For postemergence tests, the seeds are allowed to germinate, and after two weeks the flats are treated with the test compound. The compound to be evaluated is dissolved in acetone, diluted with water, and sprayed over the flats using a carrier volume equivalent to 50 gallons per acre at the rate of application (pounds per acre, lb/A.) specified in the tables. About two weeks after the application of the test compound, the state of growth of the plants is observed and the phytotoxic effect of the compound is evaluated. Tables III and IV give the average percent control achieved by test compounds in terms of the percent of the plants which are killed by the compounds.

[2] = tested on: downybrome (Bromus tectorum); experiment: Postemergence herbicidal activity, downybrome; conditions: Post, 2 lb/A; for pest or weed control at 2241.7 g/ha: Bromus tectorum, post-emergence, 336 h
Description: as §1, §2

[3] = tested on: barnyardgrass (Echinochloa crusgalli); experiment: Postemergence herbicidal activity, barnyardgrass; conditions: Post, 2 lb/A; for pest or weed control at 2241.7 g/ha: Echinochloa crus-galli, post-emergence, 336 h
Description: as §1
(§3) The following est procedure is employed. Seeds of selected crops and weeds are planted in soil in flats. For preemergence tests, the flats are treated with the test compound immediately after the planting. For postemergence tests, the seeds are allowed to germinate, and after two weeks the flats are treated with the test compound. The compound to be evaluated is dissolved in acetone, diluted with water, and sprayed over the flats using a carrier volume equivalent to 50 gallons per acre at the rate of application (pounds per acre, lb/A.) specified in the tables.

[4] = tested on: cocklebur (Xanthium pensylvanicum); experiment: Postemergence herbicidal activity, cocklebur; conditions: 2 lb/A; for pest or weed control at 2241.7 g/ha: Xanthium strumarium, post-emergence, 336 h
Description: as §1, §2

[5] = tested on: yellow nutsedge (Cyperus esculentus); experiment: Postemergence herbicidal activity, yellow nutsedge; conditions: 2 lb/A; for pest or weed control at 2241.7 g/ha: Cyperus, post-emergence, 336 h
Description: as §1, §2

wild oats (Avena fatua) [6] = experiment: Postemergence herbicidal activity, wild oats; conditions: Post, 2 lb/A; for pest or weed control at 2241.7 g/ha: Avena fatua, post-emergence, 336 h, read-out: % control, Wild oat
Description: as §1, §2

foxtail (Setaria spp.) [7] = experiment: Postemergence herbicidal activity, foxtail; conditions: Post, 2 lb/A; for pest or weed control at 2241.7 g/ha: Setaria, post-emergence, 336 h
Description: as §1, §2

marigold (Tagetes spp.) [8] = experiment: Preemergence herbicidal activity, marigold; conditions: 2 lb/A; for pest or weed control at 2241.7 g/ha: pre-emergence, 336 h
Description: as §1, §2

[9] = tested on: morningglory (Ipomoca spp.); experiment: Postemergence herbicidal activity, morningglory; conditions: 2 lb/A; for pest or weed control at 2241.7 g/ha: Ipomoea, post-emergence, 336 h
Description: as §1, §2

[10] = tested on: downybrome (Bromus tectorum); experiment: Preemergence herbicidal activity, downybrome; conditions: Pre, 2 lb/A; for pest or weed control at 2241.7 g/ha: Bromus tectorum, pre-emergence, 336 h
Description: as §1, §2

marigold (Tagetes spp.) [11] = experiment: Postemergence herbicidal activity, marigold; conditions: 2 lb/A; for pest or weed control at 2241.7 g/ha: post-emergence, 336 h
Description: as §1, §2

[12] = tested on: yellow nutsedge (Cyperus esculentus); experiment: Preemergence herbicidal activity, yellow nutsedge; conditions: 2 lb/A; for pest or weed control at 2241.7 g/ha: Cyperus, pre-emergence, 336 h
Description: as §1, §2

[13] = tested on: tomato (Lycopersicon esculentum); experiment: Preemergence herbicidal activity, tomato; conditions: Pre, 2 lb/A; for pest or weed control at 2241.7 g/ha: Solanum lycopersicum, pre-emergence, 336 h
Description: as §1, §2

wild oats (Avena fatua) [14] = experiment: Preemergence herbicidal activity, wild oats; conditions: Pre, 2 lb/A; for pest or weed control at 2241.7 g/ha: Avena fatua, pre-emergence, 336 h, read-out: % control, Wild oat
Description: as §1, §2

foxtail (Setaria spp.) [15] = experiment: Preemergence herbicidal activity, foxtail; conditions: Pre, 2 lb/A; for pest or weed control at 2241.7 g/ha: Setaria, pre-emergence, 336 h
Description: as §1, §2

[16] = tested on: cocklebur (Xanthium pensylvanicum); experiment: Preemergence herbicidal activity, cocklebur; conditions: 2 lb/A; for pest or weed control at 2241.7 g/ha: Xanthium strumarium, pre-emergence, 336 h
Description: as §1, §2

[17] = tested on: tomato (Lycopersicon esculentum); experiment: Postemergence herbicidal activity, tomato; conditions: Post, 2 lb/A; for pest or weed control at 2241.7 g/ha: Solanum lycopersicum, post-emergence, 336 h
Description: as §1, §2

[18] = tested on: velvetleaf (Abutilon theophrasti); experiment: Postemergence herbicidal activity, velvetleaf; conditions: 2 lb/A; for pest or weed control at 2241.7 g/ha: Abutilon theophrasti, post-emergence, 336 h
Description: as §1, §3

[19] = tested on: velvetleaf (Abutilon theophrasti); experiment: Preemergence herbicidal activity, velvetleaf; conditions: Pre, 2 lb/A; for pest or weed control at 2241.7 g/ha: Abutilon theophrasti, pre-emergence, 336 h
Description: as §1, §2

[20] = tested on: barnyardgrass (Echinochloa crusgalli); experiment: Preemergence herbicidal activity, barnyardgrass; conditions: Pre, 2 lb/A; for pest or weed control at 2241.7 g/ha: Echinochloa crus-galli, pre-emergence, 336 h
Description: as §1, §3

Structure (SMILES) | pest or weed control at 2241.7 g/ha [1] [%] | pest or weed control at 2241.7 g/ha [2] [%] | pest or weed control at 2241.7 g/ha [3] [%] | pest or weed control at 2241.7 g/ha [4] [%] | pest or weed control at 2241.7 g/ha [5] [%] | pest or weed control at 2241.7 g/ha (wild oats (Avena fatua) [6]) [%] | pest or weed control at 2241.7 g/ha (foxtail (Setaria spp.) [7]) [%] | pest or weed control at 2241.7 g/ha (marigold (Tagetes spp.) [8]) [%] | pest or weed control at 2241.7 g/ha [9] [%] | pest or weed control at 2241.7 g/ha [10] [%] | pest or weed control at 2241.7 g/ha (marigold (Tagetes spp.) [11]) [%] | pest or weed control at 2241.7 g/ha [12] [%] | pest or weed control at 2241.7 g/ha [13] [%] | pest or weed control at 2241.7 g/ha (wild oats (Avena fatua) [14]) [%] | pest or weed control at 2241.7 g/ha (foxtail (Setaria spp.) [15]) [%] | pest or weed control at 2241.7 g/ha [16] [%] | pest or weed control at 2241.7 g/ha [17] [%] | pest or weed control at 2241.7 g/ha [18] [%] | pest or weed control at 2241.7 g/ha [19] [%] | pest or weed control at 2241.7 g/ha [20] [%] | also measured
CCOC(=O)CCC(C)Oc1ccc(Oc2ccc(C(F)(F)F)cc2Cl)cc1 (centres unmarked) [Example 38] | 0 | 90 | 100 | 0 | 0 | 99 | 100 | 0 | 0 | 0 | 0 | 0 | 0 | 0 | 100 | 0 | 0 | 0 | 0 | 90 | 
CCN(CC)C(=O)C(C)Oc1ccc(Oc2ccc(C(F)(F)F)cc2Cl)cc1 (centres unmarked) [Example 5] | 0 | 30 | 20 | 0 | 0 | 20 | 90 | 0 | 20 | 0 | 0 | 0 | 0 | 0 | 99 | 0 | 80 | 20 | 0 | 60 | 
CC(Oc1ccc(Oc2ccc(C(F)(F)F)cc2Cl)cc1)C(=O)O (centres unmarked) [Example 14, Sodium 2-[4-(2-chloro-4-trifluoromethylphenoxy)phenoxy] propionate] |  |  |  |  |  |  |  |  |  |  |  |  |  |  |  |  |  |  |  |  | % control, Morningglory ([1]; Pre): 0%; % control, Downybrome [2]: 20%; % control, Barnyardgrass [3]: 100%; % control, Cocklebur ([4]; Post): 0%; % control, Nutsedge ([5]; Post): 0%; % control, Wild oat (wild oats (Avena fatua) [6]): 80%; % control, Foxtail (foxtail (Setaria spp.) [7]): 95%; % control, Marigold (marigold (Tagetes spp.) [8]; Pre): 0%; % control, Morningglory ([9]; Post): 0%; % control, Downybrome [10]: 50%; % control, Marigold (marigold (Tagetes spp.) [11]; Post): 0%; % control, Nutsedge ([12]; Pre): 0%; % control, Tomato [13]: 0%; % control, Wild oat (wild oats (Avena fatua) [14]): 40%; % control, Foxtail (foxtail (Setaria spp.) [15]): 100%; % control, Cocklebur ([16]; Pre): 0%; % control, Tomato [17]: 0%; % control, Velvetleaf ([18]; Post): 0%; % control, Velvetleaf [19]: 0%; % control, Barnyardgrass [20]: 100%
CCOC(=O)C(C)Oc1cccc(Oc2ccc(C(F)(F)F)cc2Cl)c1 (centres unmarked) [Example 2] | 0 | 40 | 60 | 90 | 0 | 50 | 50 | 90 | 100 | 0 | 90 | 0 | 100 | 20 | 100 | 0 | 100 | 100 | 100 | 30 | 
